Test: recombinant barcode read abundance after kanamycin selection (control-corrected) (log10(CPM+1)); higher = more efficient recombination; sequences stand for … in AGTGCAGAGAAAATCGGCCAGTTTTCTCTGCCTGCAGTCCGCATGCCGT…AGATTTATGCAGCGGACTGCCTTTCTCCCAAAGTGATAAACCGGACAGTATCATGGACCGGTTTTCCCGGTAATCCGTATTTGCAAGGTTGGTTTCACT; site = the 11-nt target
How it was run: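 Reported as log10(CPM+1), each value stands for recombination efficiency. That efficiency is the averaged, control-corrected counts per million of barcodes found at recombinant junctions. Cells from a pooled E. coli library pairing targets with IS621 bridge RNA target-binding loops were plated twice on chloramphenicol/ampicillin LB agar (control) and twice on chloramphenicol/ampicillin/kanamycin with 0.1 mM IPTG.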
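Further: IS621 recombinase and bridge RNA in Escherichia coli cells.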

Sequence | recombinant barcode read abundance (log10)
GGTATGTCTTGGGTTCTAACCTGTTGCCT (site AGTATGTCTAG) | 0.204
GGTATGTCTTGGGTTCTAACCTGTTGCCT (site CGTATGTCTAG) | 0.0446
GGTATGTCTTGGGTTCTAACCTGTTGCCT (site GGTATGTCTAG) | 1.96
GGTATGTCTTGGGTTCTAACCTGTTGCCT (site TGTATGTCTAG) | 0.106
GGTCATTCTTGGGTTCTAACCTGTTGCCT (site GGTCATACTAG) | 0.0311
GGTCATTCTTGGGTTCTAACCTGTTGCCT (site GGTCATCCTAG) | 0.157
GGTCATTCTTGGGTTCTAACCTGTTGCCT (site GGTCATGCTAG) | 0.0124
GGTCATTCTTGGGTTCTAACCTGTTGCCT (site GGTCATTCTAG) | 0.626
GGTCGGACTTGGGTTCTAACCTGTTGCCA (site GGACGGACTTG) | 0.281
GGTCGGACTTGGGTTCTAACCTGTTGCCA (site GGTCGGACTTG) | 0.548
GGTCGGACTTGGGTTCTAACCTGTTGCGT (site GGAGGGACTAC) | 0.0819
GGTCGGACTTGGGTTCTAACCTGTTGCGT (site GGTCGGACTAC) | 2.17
GGTCGTACTTGGGTTCTAACCTGTTGCCT (site CCGTTGTCTTA) | 0.177
GGTCGTACTTGGGTTCTAACCTGTTGCCT (site GGTCGTACTAG) | 0.286
GGTGAGCCTTGGGTTCTAACCTGTTGCGT (site CACACTACTCA) | 0.0427
GGTGAGCCTTGGGTTCTAACCTGTTGCGT (site GGTGAGCCTAC) | 2.68
GGTGCCTCTTGGGTTCTAACCTGTTGCAT (site GGGGCCTCTCT) | 0.258
GGTGCCTCTTGGGTTCTAACCTGTTGCAT (site GGTGCCTCTAT) | 1.46
GGTGCGGCTTGGGTTCTAACCTGTTGCCT (site AGTGCGGCTAG) | 0.492
GGTGCGGCTTGGGTTCTAACCTGTTGCCT (site CGTGCGGCTAG) | 0.139
GGTGCGGCTTGGGTTCTAACCTGTTGCCT (site GGTGCGGCTAG) | 0.494
GGTGCGGCTTGGGTTCTAACCTGTTGCCT (site TGTGCGGCTAG) | 0.505

Sequence | recombinant barcode read abundance (log10)
GGTGGATCTTGGGTTCTAACCTGTTGCCT (site GGTGACTCTAG) | 0.0125
GGTGGATCTTGGGTTCTAACCTGTTGCCT (site GGTGGATCTAG) | 0.813
GGTGGCTCTTGGGTTCTAACCTGTTGCCA (site GGTGGCTCTTG) | 0.607
GGTGGCTCTTGGGTTCTAACCTGTTGCCA (site TAATCTCCTAC) | 0.0407
GGTGGGTCTTGGGTTCTAACCTGTTGCAT (site GGTGGGTCTAA) | 0.345
GGTGGGTCTTGGGTTCTAACCTGTTGCAT (site GGTGGGTCTAC) | 0.128
GGTGGGTCTTGGGTTCTAACCTGTTGCAT (site GGTGGGTCTAG) | 0.805
GGTGGGTCTTGGGTTCTAACCTGTTGCAT (site GGTGGGTCTAT) | 2.25
GGTGGGTCTTGGGTTCTAACCTGTTGCCT (site GGTGGGTCTAA) | 0.123
GGTGGGTCTTGGGTTCTAACCTGTTGCCT (site GGTGGGTCTAC) | 0.123
GGTGGGTCTTGGGTTCTAACCTGTTGCCT (site GGTGGGTCTAG) | 1.29
GGTGGGTCTTGGGTTCTAACCTGTTGCCT (site GGTGGGTCTAT) | 0.382
GGTTCCTCTTGGGTTCTAACCTGTTGCCT (site GGATCGTCTAG) | 0.0714
GGTTCCTCTTGGGTTCTAACCTGTTGCCT (site GGTTCCTCTAG) | 1.11
GGTTCTCCTTGGGTTCTAACCTGTTGCCT (site AGTTCTCCTAG) | 0.0625
GGTTCTCCTTGGGTTCTAACCTGTTGCCT (site CGTTCTCCTAG) | 0.0451
GGTTCTCCTTGGGTTCTAACCTGTTGCCT (site GGTTCTCCTAG) | 0.288
GGTTCTCCTTGGGTTCTAACCTGTTGCCT (site TGTTCTCCTAG) | 0.0347
GGTTCTTCTTGGGTTCTAACCTGTTGCCT (site GATTCTTCTAG) | 0.12
GGTTCTTCTTGGGTTCTAACCTGTTGCCT (site GCTTCTTCTAG) | 0.0288
GGTTCTTCTTGGGTTCTAACCTGTTGCCT (site GGTTCTTCTAG) | 0.344
GGTTCTTCTTGGGTTCTAACCTGTTGCCT (site GTTTCTTCTAG) | 0.19

Sequence | recombinant barcode read abundance (log10)
GGTTGACCTTGGGTTCTAACCTGTTGCGG (site GGTTGACCTCC) | 1.51
GGTTGACCTTGGGTTCTAACCTGTTGCGG (site GGTTGCCCTCC) | 0.0589
GGTTGACCTTGGGTTCTAACCTGTTGCGG (site GGTTGGCCTCC) | 0.0632
GGTTGACCTTGGGTTCTAACCTGTTGCGG (site GGTTGTCCTCC) | 0.0522
GGTTGCCCTTGGGTTCTAACCTGTTGCGG (site GGTTGACCTCC) | 0.295
GGTTGCCCTTGGGTTCTAACCTGTTGCGG (site GGTTGCCCTCC) | 0.946
GGTTGCCCTTGGGTTCTAACCTGTTGCGG (site GGTTGGCCTCC) | 0.0682
GGTTGCCCTTGGGTTCTAACCTGTTGCGG (site GGTTGTCCTCC) | 0.0903
GGTTGTCCTTGGGTTCTAACCTGTTGCCT (site GGTGGTCCTAG) | 0.253
GGTTGTCCTTGGGTTCTAACCTGTTGCCT (site GGTTGTCCTAG) | 0.328
GGTTGTCCTTGGGTTCTAACCTGTTGCGG (site GGTTGACCTCC) | 0.237
GGTTGTCCTTGGGTTCTAACCTGTTGCGG (site GGTTGCCCTCC) | 0.0684
GGTTGTCCTTGGGTTCTAACCTGTTGCGG (site GGTTGGCCTCC) | 0.109
GGTTGTCCTTGGGTTCTAACCTGTTGCGG (site GGTTGTCCTCC) | 1.2
GGTTGTCCTTGGGTTCTAACCTGTTGCTA (site GATTGTCCTAA) | 0.182
GGTTGTCCTTGGGTTCTAACCTGTTGCTA (site GGTTGTCCTTA) | 0.181
GGTTTAGCTTGGGTTCTAACCTGTTGCTA (site GGTTTAGCTTA) | 0.106
GGTTTAGCTTGGGTTCTAACCTGTTGCTA (site TGTATAGCTTA) | 0.0842
GTAAAACCTTGGGTTCTAACCTGTTGCCT (site ATAAAACCTAG) | 0.281
GTAAAACCTTGGGTTCTAACCTGTTGCCT (site CTAAAACCTAG) | 0.23
GTAAAACCTTGGGTTCTAACCTGTTGCCT (site GTAAAACCTAG) | 1.06
GTAAAACCTTGGGTTCTAACCTGTTGCCT (site TTAAAACCTAG) | 0.266

Sequence | recombinant barcode read abundance (log10)
GTAAACCCTTGGGTTCTAACCTGTTGCGG (site GTAAACCCTCC) | 2.33
GTAAACCCTTGGGTTCTAACCTGTTGCGG (site GTCAACCCTCC) | 0.228
GTAACGACTTGGGTTCTAACCTGTTGCCA (site GTAACGACTTG) | 1.08
GTAACGACTTGGGTTCTAACCTGTTGCCA (site GTGAGGACTTG) | 0.0765
GTAAGTCCTTGGGTTCTAACCTGTTGCAG (site GTAAGAACTCT) | 0.0477
GTAAGTCCTTGGGTTCTAACCTGTTGCAG (site GTAAGTCCTCT) | 1.97
GTAAGTGCTTGGGTTCTAACCTGTTGCAT (site ACCCAGTCTCC) | 0.174
GTAAGTGCTTGGGTTCTAACCTGTTGCAT (site GTAAGTGCTAT) | 0.829
GTAATCCCTTGGGTTCTAACCTGTTGCCA (site GTAATCCCTCG) | 0.173
GTAATCCCTTGGGTTCTAACCTGTTGCCA (site GTAATCCCTTG) | 1.32
GTACAGACTTGGGTTCTAACCTGTTGCCT (site GTACAGACTAG) | 1.43
GTACAGACTTGGGTTCTAACCTGTTGCCT (site GTCCAGACTAG) | 0.0588
GTACAGACTTGGGTTCTAACCTGTTGCCT (site GTGCAGACTAG) | 0.0183
GTACAGACTTGGGTTCTAACCTGTTGCCT (site GTTCAGACTAG) | 0.078
GTACAGGCTTGGGTTCTAACCTGTTGCAG (site GTACAGGCTCT) | 0.808
GTACAGGCTTGGGTTCTAACCTGTTGCAG (site TGACAGGCTCT) | 0.178
GTACGCACTTGGGTTCTAACCTGTTGCCT (site AGTTAGTCTCT) | 0.0249
GTACGCACTTGGGTTCTAACCTGTTGCCT (site GTACGCACTAG) | 0.994
GTAGTAGCTTGGGTTCTAACCTGTTGCCT (site GTAGTAACTAG) | 0.954
GTAGTAGCTTGGGTTCTAACCTGTTGCCT (site GTAGTACCTAG) | 0.0193
